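Five compound concentrations were applied to cells in 96-well plates for 48 hours; endpoints were derived by simple linear interpolation of the resulting dose-response curve. Definition used: TGI = concentration required for complete inhibition of growth.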
What was measured:
Test in all cases: NCI anticancer screen, dose series, 48 h
[1] = tested on: LOX IMVI melanoma
[2] = tested on: SN12C renal
[3] = tested on: DLD-1 colon
[4] = tested on: IGROV1 ovarian
[5] = tested on: SF-539 CNS
[6] = tested on: DMS 273 small cell lung
[7] = tested on: OVCAR-4 ovarian
[8] = tested on: OVCAR-5 ovarian
[9] = tested on: DMS 114 small cell lung
[10] = tested on: HOP-18 NSCLC
[11] = tested on: LXFL 529 NSCLC
[12] = tested on: SNB-19 CNS
[13] = tested on: NCI-H460 lung
[14] = tested on: RPMI-8226 leukemia
[15] = tested on: COLO 205 colon
[16] = tested on: SNB-75 CNS
[17] = tested on: SK-OV-3 ovarian
[18] = tested on: SK-MEL-28 melanoma
[19] = tested on: SNB-78 CNS
[20] = tested on: HL-60(TB) leukemia
[21] = tested on: MOLT-4 leukemia
[22] = tested on: HCT-116 colon
[23] = tested on: EKVX NSCLC
[24] = tested on: HCC-2998 colon
[25] = tested on: ACHN renal
[26] = tested on: U251 CNS
[27] = tested on: SF-295 CNS
[28] = tested on: CCRF-CEM leukemia
[29] = tested on: RXF 393 renal
[30] = tested on: A549 NSCLC
[31] = tested on: TK-10 renal
[32] = tested on: SW-620 colon
[33] = tested on: M14 melanoma
[34] = tested on: SF-268 CNS
[35] = tested on: HOP-62 NSCLC
[36] = tested on: A498 renal
[37] = tested on: KM20L2 colon
[38] = tested on: XF 498 CNS
[39] = tested on: OVCAR-3 ovarian
[40] = tested on: CAKI-1 renal
[41] = tested on: NCI-H23 lung
[42] = tested on: KM12 colon
[43] = tested on: HT29 colon
[44] = tested on: NCI-H226 lung
[45] = tested on: UACC-62 melanoma
[46] = tested on: SR leukemia
[47] = tested on: MALME-3M melanoma
[48] = tested on: HOP-92 NSCLC
[49] = tested on: K-562 leukemia
[50] = tested on: NCI-H522 lung
[51] = tested on: M19-MEL melanoma
[52] = tested on: 786-0 renal
[53] = tested on: UACC-257 melanoma
[54] = tested on: UO-31 renal
[55] = tested on: OVCAR-8 ovarian
[56] = tested on: SK-MEL-2 melanoma
[57] = tested on: HCT-15 colon

With `COC(=O)/C(=C1\OC(=O)C(c2ccc(Cl)cc2)=C1O)c1ccc(Cl)cc1` the TGI [1] was 64.4 µM, the TGI [2] was over 100 µM and the TGI [3] was over 100 µM. For the same molecule, the TGI [4] was over 100 µM, the TGI [5] was 67.7 µM and the TGI [6] was 36.3 µM. It also gave a TGI [7] of over 100 µM, a TGI [8] of 79.5 µM and a TGI [9] of 51.3 µM. The TGI [10] was over 100 µM, the TGI [11] was 87.7 µM and the TGI [12] was 94.5 µM. For the same molecule, the TGI [13] was 92.4 µM, the TGI [14] was 55.2 µM and the TGI [15] was 45 µM. The TGI [16] was 73 µM, the TGI [17] was 84.6 µM and the TGI [18] was over 100 µM. It also gave a TGI [19] of over 100 µM, a TGI [20] of 32.9 µM and a TGI [21] of 65.5 µM. It also gave a TGI [22] of 50.4 µM, a TGI [23] of 72.5 µM and a TGI [24] of 86.5 µM. For the same molecule, the TGI [25] was 79.2 µM, the TGI [26] was over 100 µM and the TGI [27] was 43 µM. It also gave a TGI [28] of over 100 µM, a TGI [29] of 63 µM and a TGI [30] of 84.3 µM. For the same molecule, the TGI [31] was 75.5 µM, the TGI [32] was over 100 µM and the TGI [33] was 97.5 µM. It also gave a TGI [34] of over 100 µM, a TGI [35] of 41.4 µM and a TGI [36] of 47.8 µM. It also gave a TGI [37] of 88.4 µM, a TGI [38] of 36.1 µM and a TGI [39] of 87.6 µM. It also gave a TGI [40] of 57.9 µM, a TGI [41] of 40.3 µM and a TGI [42] of 67.8 µM. For the same molecule, the TGI [43] was over 100 µM, the TGI [44] was 58.5 µM and the TGI [45] was 56.9 µM. It also gave a TGI [46] of 80.9 µM, a TGI [47] of 55.7 µM and a TGI [48] of 50.4 µM. The TGI [49] was 86.9 µM, the TGI [50] was 50.4 µM and the TGI [51] was 66.2 µM. It also gave a TGI [52] of over 100 µM, a TGI [53] of 48.8 µM and a TGI [54] of 68.9 µM. For the same molecule, the TGI [55] was over 100 µM.
`CC(C)(C)c1cc([Si](C)(C)C)c(C#N)c([Si](C)(C)C)c1` was tested, and the TGI [1] was over 100 µM, the TGI [2] was over 100 µM and the TGI [3] was over 100 µM. The TGI [4] was over 100 µM, the TGI [5] was over 100 µM and the TGI [6] was over 100 µM. For the same molecule, the TGI [7] was over 100 µM, the TGI [8] was over 100 µM and the TGI [9] was over 100 µM. It also gave a TGI [10] of over 100 µM, a TGI [11] of over 100 µM and a TGI [12] of over 100 µM. For the same molecule, the TGI [13] was over 100 µM, the TGI [15] was over 100 µM and the TGI [16] was over 100 µM. It also gave a TGI [17] of over 100 µM, a TGI [18] of over 100 µM and a TGI [19] of over 100 µM. The TGI [20] was 44.2 µM, the TGI [21] was over 100 µM and the TGI [22] was over 100 µM. The TGI [23] was over 100 µM, the TGI [24] was over 100 µM and the TGI [25] was over 100 µM. It also gave a TGI [26] of over 100 µM, a TGI [27] of over 100 µM and a TGI [28] of over 100 µM. The TGI [29] was over 100 µM, the TGI [30] was over 100 µM and the TGI [31] was over 100 µM. The TGI [32] was over 100 µM, the TGI [33] was over 100 µM and the TGI [34] was over 100 µM. It also gave a TGI [35] of over 100 µM, a TGI [36] of over 100 µM and a TGI [37] of over 100 µM. The TGI [56] was over 100 µM, the TGI [38] was 67 µM and the TGI [39] was over 100 µM. The TGI [57] was over 100 µM, the TGI [40] was over 100 µM and the TGI [41] was over 100 µM. The TGI [42] was over 100 µM, the TGI [43] was over 100 µM and the TGI [44] was over 100 µM. The TGI [45] was over 100 µM, the TGI [46] was 85.5 µM and the TGI [47] was over 100 µM. For the same molecule, the TGI [48] was over 100 µM, the TGI [49] was over 100 µM and the TGI [50] was over 100 µM. For the same molecule, the TGI [51] was over 100 µM, the TGI [52] was over 100 µM and the TGI [53] was over 100 µM. For the same molecule, the TGI [54] was over 100 µM and the TGI [55] was over 100 µM.
